Data reported in patent publication US12522607B2, “Substituted pyrazolo[3,4-d]pyrimidines as wee-1 inhibitors” (WIGEN BIOMEDICINE TECHNOLOGY (SHANGHAI) CO., LTD., priority 2020, dated 2026).

Key:
HT29 cells = assay: Antiproliferative activity against HT29 cells (Cell Titer-Lumi, ATP content); type: cell-based; details: Homo sapiens, HT-29, 72 after compound addition, read-out: HT-29 cells Anti-proliferative activity (IC50 for the inhibition against HT-29 cell growth)
In short: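 3000 cells per well, allowed to adhere overnight, then exposed to a gradient dilution of compound for 72 (units as printed). Cellular ATP read by luminescence (Cell Titer-Lumi) as a growth measure; IC50 for growth inhibition calculated.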

Wee-1 kinase = target: T1, Wee-1 kinase (Homo sapiens, UniProt P30291); assay: Inhibitory activity against Wee-1 kinase (Lanthra Screen Wee-1 kinase kit, Tracer 178); type: binding; details: Wee-1 kinase 5 nM, Tracer 178 50 nM, 1 h room temperature
T1 construct: purchased Invitrogen
In short: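 LanthaScreen binding format: Wee-1 kinase (5 nM final) with Eu-anti-GST antibody (2 nM final) and kinase Tracer 178 (50 nM final), compounds serially diluted in DMSO. 1 h at room temperature before reading. IC50 relative to DMSO control.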

[1] = Pharmacokinetic evaluation in mice; type: in vivo, male ICR mice; details: for AUC(0-t) / clearance / half-life / Vd / Cmax / Tmax: male, ICR, mouse, plasma; for Vd: read-out: Vss; for F: po 10 mg/kg vs iv 2 mg/kg
Experimental: Example 344. Pharmacokinetic Evaluation in Mice
The compounds were administered by intravenous injection at a dose of 2 mg/kg and oral gavage at a dose of 10 mg/kg (0.5% CMC-Na suspension). 15 male ICR mice were selected for each group, and each mouse was subjected to blood collection at 3 discrete time points, with 3 mice at each time point. The time points of sampling were as follows: before administration, and 5 min, 15 min, 30 min, 1 h, 3 h, 5 h, 8 h, 12 h and 24 h after administration. 80 μL of blood was collected from the orbits or hearts of the mice at each time point after administration. All whole blood samples were collected in tubes containing EDTA K2 and centrifuged (1500-1600 rmp/min) at 4° C. for 10 min to isolate plasma, which was then stored in a refrigerator at −90° C. to −60° C. for sample analysis. The compound concentration in the plasma was determined by liquid chromatography-tandem mass spectrometry, and the corresponding pharmacokinetic parameters were obtained according to a plasma concentration-time curve.

[2] = po, 10 mg/kg, 0.5% CMC-Na suspension

T1 sequence (P30291 whole entry): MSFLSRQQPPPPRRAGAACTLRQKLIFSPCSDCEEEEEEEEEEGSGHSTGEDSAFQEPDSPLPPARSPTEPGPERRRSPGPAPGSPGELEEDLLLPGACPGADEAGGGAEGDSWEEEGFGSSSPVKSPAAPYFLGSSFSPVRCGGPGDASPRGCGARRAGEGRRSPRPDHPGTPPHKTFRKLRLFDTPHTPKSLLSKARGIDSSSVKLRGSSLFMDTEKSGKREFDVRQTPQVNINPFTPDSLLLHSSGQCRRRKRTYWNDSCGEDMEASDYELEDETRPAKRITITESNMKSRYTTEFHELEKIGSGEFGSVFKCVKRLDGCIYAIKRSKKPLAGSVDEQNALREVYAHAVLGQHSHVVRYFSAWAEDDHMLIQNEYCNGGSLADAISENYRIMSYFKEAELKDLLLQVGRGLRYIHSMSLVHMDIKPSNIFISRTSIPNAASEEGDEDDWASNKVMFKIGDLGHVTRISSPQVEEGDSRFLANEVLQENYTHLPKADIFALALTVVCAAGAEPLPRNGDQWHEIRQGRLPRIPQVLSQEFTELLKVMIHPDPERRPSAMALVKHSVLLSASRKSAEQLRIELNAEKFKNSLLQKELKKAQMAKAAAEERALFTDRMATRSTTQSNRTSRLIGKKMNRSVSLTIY

SMILES | IC50 (HT29 cells) [nM] | IC50 (Wee-1 kinase) [nM] | other results
C=CCn1c(=O)c2cnc(Nc3ccc(N4CCN(C)CC4)cc3)nc2n1-c1ccc(=O)n(C(C)C)n1 [Compound 3] | ≤ 1000 | ≤ 30 | oral absorption characteristics (in words) ([1]; compared with control drug AZD-1775): good oral absorption characteristics; AUC(0-t) ([1]; iv, 2 mg/kg): 736 ng·h/mL; clearance ([1]; iv, 2 mg/kg): 45.3 mL/min/kg; half-life ([1]; iv, 2 mg/kg): 43.1 min; Vd ([1]; iv, 2 mg/kg): 1.8 L/kg; AUC(0-t) [1, 2]: 1210 ng·h/mL; Cmax [1, 2]: 533 ng/mL; Tmax [1, 2]: 15 min; half-life [1, 2]: 115 min; F [1]: 32.9%
C=CCn1c(=O)c2cnc(Nc3ccc(N4CCN(C)CC4)cc3)nc2n1-c1cccc(C(C)(C)O)n1 [AZD-1775, reference compound] | ≤ 1000 |  | AUC(0-t) ([1]; iv, 2 mg/kg): 152 ng·h/mL; clearance ([1]; iv, 2 mg/kg): 220 mL/min/kg; half-life ([1]; iv, 2 mg/kg): 18 min; Vd ([1]; iv, 2 mg/kg): 3.51 L/kg; AUC(0-t) [1, 2]: 215 ng·h/mL; Cmax [1, 2]: 247 ng/mL; Tmax [1, 2]: 30 min; half-life [1, 2]: 87 min; F [1]: 28.3%
C=CCn1c(=O)c2cnc(Nc3ccc4c(c3)CNCC4(C)C)nc2n1-c1ccc(=O)n(C(C)C)n1 [Compound 237] | ≤ 1000 | ≤ 30 | 
C=CCn1c(=O)c2cnc(Nc3cc(OC)cc(C4CCN(C)CC4)c3)nc2n1-c1ccc(=O)n(C(C)C)n1 [Compound 213] | ≤ 1000 | ≤ 30 | 
C=CCn1c(=O)c2cnc(Nc3ccc4c(c3)CC(N(C)C)C4)nc2n1-c1ccc(=O)n(C(C)C)n1 (centres unmarked) [Compound 220] | ≤ 1000 | ≤ 30 | 
C=CCn1c(=O)c2cnc(Nc3ccc(N4CCNCC4)c(Cl)c3)nc2n1-c1ccc(=O)n(C(C)C)c1 [Compound 45] | ≤ 1000 | ≤ 30 | 
C=CCn1c(=O)c2cnc(Nc3ccc4cc(N5CCN(C)CC5)cnc4c3)nc2n1-c1ccc(=O)n(C(C)C)n1 [Compound 219] | ≤ 1000 | ≤ 30 | 
C=CCn1c(=O)c2cnc(Nc3ccc(N4CCN(C5CCN(C)CC5)CC4)c(F)c3)nc2n1-c1ccc(=O)n(C(C)C)n1 [Compound 140] | ≤ 1000 | ≤ 30 | 
C=CCn1c(=O)c2cnc(Nc3ccc(CCN(C)C)c(C)c3)nc2n1-c1ccc(=O)n(C(C)C)n1 [Compound 215] | ≤ 1000 | ≤ 30 | 
Cc1cc(Nc2ncc3c(=O)n(C4CC4)n(-c4ccc(=O)n(C(C)C)c4)c3n2)ccc1C1CCN(C)CC1 [Compound 309] | ≤ 1000 | ≤ 30 | 
C=CCn1c(=O)c2cnc(Nc3ccc(N4CCC(C)(NC)CC4)c(C)c3)nc2n1-c1ccc(=O)n(C(C)C)n1 [Compound 111] | ≤ 1000 | ≤ 30 | 
Cc1cc(Nc2ncc3c(=O)n(C4CC4)n(-c4ccc(=O)n(C(C)(C)C)c4)c3n2)ccc1N1CCN(C)CC1 [Compound 339] | ≤ 1000 | ≤ 30 | 
C=CCn1c(=O)c2cnc(Nc3cc(Cl)c(N4CCN(C)CC4)c(OC)c3)nc2n1-c1ccc(=O)n(C(C)C)n1 [Compound 66] | ≤ 1000 | ≤ 30 | 
C=CCn1c(=O)c2cnc(Nc3ccc(N4CCC5(CN(C)C5)C4)c(C)c3)nc2n1-c1ccc(=O)n(C(C)C)n1 [Compound 173] | ≤ 1000 | ≤ 30 | 
C=CCn1c(=O)c2cnc(Nc3ccc(N4CCN(C)CC4)cn3)nc2n1-c1ccc(=O)n(C(C)C)n1 [Compound 248] | ≤ 1000 | ≤ 30 | 
C=CCn1c(=O)c2cnc(Nc3ccc(N4CC5(CCN5C)C4)c(C)c3)nc2n1-c1ccc(=O)n(C(C)C)n1 [Compound 187] | ≤ 1000 | ≤ 30 | 
C=CCn1c(=O)c2cnc(Nc3ccc(N4CCN(C)CC4)c(C)c3)nc2n1-c1ccc(=O)n(C(C)C)c1 [Compound 296] | ≤ 1000 | ≤ 30 | 

SMILES | IC50 (HT29 cells) [nM] | IC50 (Wee-1 kinase) [nM] | other results
C=CCn1c(=O)c2cnc(Nc3ccc(N4C[C@@H](C)N(C)[C@@H](C)C4)c(C)c3)nc2n1-c1ccc(=O)n(C(C)C)n1 [Compound 119] | ≤ 1000 | ≤ 30 | 
C=CCn1c(=O)c2cnc(Nc3cc(OC)cc(C4CCNCC4)c3)nc2n1-c1ccc(=O)n(C(C)C)n1 [Compound 212] | ≤ 1000 | ≤ 30 | 
C=CCn1c(=O)c2cnc(Nc3ccc4c(N5CCC(N(C)C)CC5)cn(C)c4c3)nc2n1-c1ccc(=O)n(C(C)C)n1 [Compound 266] | ≤ 1000 | ≤ 30 | 
C=CCn1c(=O)c2cnc(Nc3ccc(N4CC(N5CCCC5)C4)c(OC)c3)nc2n1-c1ccc(=O)n(C(C)C)n1 [Compound 85] | ≤ 1000 | ≤ 30 | 
C=CCn1c(=O)c2cnc(Nc3cc(F)cc(C4CCN(C)CC4)c3)nc2n1-c1ccc(=O)n(C(C)C)n1 [Compound 209] | ≤ 1000 | ≤ 30 | 
C=CCn1c(=O)c2cnc(Nc3ccc(N4CCN(C5CCN(C)CC5)CC4)c(OC)c3)nc2n1-c1ccc(=O)n(C(C)C)n1 [Compound 141] | ≤ 1000 | ≤ 30 | 
C=CCn1c(=O)c2cnc(Nc3ccc(N4CC[C@@H](N(C)C)C4)c(OC)c3)nc2n1-c1ccc(=O)n(C(C)C)n1 [Compound 97] | ≤ 1000 | ≤ 30 | 
C=CCn1c(=O)c2cnc(Nc3ccc4c(N5CCN(C)CC5)c[nH]c4c3)nc2n1-c1ccc(=O)n(C(C)C)n1 [Compound 261] | ≤ 1000 | ≤ 30 | 
C=CCn1c(=O)c2cnc(Nc3ccc(N4CCC(C)(NC)CC4)c(OC)c3)nc2n1-c1ccc(=O)n(C(C)C)n1 [Compound 112] | ≤ 1000 | ≤ 30 | 
C=CCn1c(=O)c2cnc(Nc3ccc(N4CCC(N5CCCCC5)CC4)c(OC)c3)nc2n1-c1ccc(=O)n(C(C)C)n1 [Compound 147] | ≤ 1000 | ≤ 30 | 
CCn1c(=O)c2cnc(Nc3ccc(N4CCN(C)CC4)cc3)nc2n1-c1cc(F)c(=O)n(C(C)C)c1 [Compound 315] | ≤ 1000 | ≤ 30 | 
C=CCn1c(=O)c2cnc(Nc3ccc(N4CCC(NC)CC4)c(C)c3)nc2n1-c1ccc(=O)n(C(C)C)n1 [Compound 105] | ≤ 1000 | ≤ 30 | 
C=CCn1c(=O)c2cnc(Nc3cc(N4CCN(C)CC4)c4ccn(C)c4c3)nc2n1-c1ccc(=O)n(C(C)C)n1 [Compound 255] | ≤ 1000 | ≤ 30 | 
C=CCn1c(=O)c2cnc(Nc3ccc(N4CC5(CN(C)C5)C4)cc3)nc2n1-c1ccc(=O)n(C(C)C)n1 [Compound 157] | ≤ 1000 | ≤ 30 | 
C=CCn1c(=O)c2cnc(Nc3ccc(N4CCC(N)CC4)cc3)nc2n1-c1ccc(=O)n(C(C)C)n1 [Compound 101] | 1000 to 3000 | ≤ 30 | 
CCn1c(=O)c2cnc(Nc3ccc4c(c3)CN(C)CC43CC3)nc2n1-c1ccc(=O)n(C(C)C)c1 [Compound 302] | ≤ 1000 | ≤ 30 | 
C=CCn1c(=O)c2cnc(Nc3ccc(N4CCN(C)CC4)c(C)c3)nc2n1-c1ccc(=O)n(C(C)(C)C)n1 [Compound 281] | ≤ 1000 | ≤ 30 | 
